Here are results for five compounds from ChEMBL document CHEMBL1125558 (J Med Chem, 1992).

Assay [1] is filed under the species Rattus norvegicus. Briefly: Compound was evaluated for its ability to inhibit high-affinity uptake of [3H]dopamine into striatal nerve endings of rat. The format is functional.
Assay [2] deals with Sodium-dependent dopamine transporter (Rattus norvegicus, UniProt P23977). Put plainly: Compound was evaluated for its ability to displace [3H]mazindol binding from rat striatal membranes.
Chain of Sodium-dependent dopamine transporter (P23977 whole entry): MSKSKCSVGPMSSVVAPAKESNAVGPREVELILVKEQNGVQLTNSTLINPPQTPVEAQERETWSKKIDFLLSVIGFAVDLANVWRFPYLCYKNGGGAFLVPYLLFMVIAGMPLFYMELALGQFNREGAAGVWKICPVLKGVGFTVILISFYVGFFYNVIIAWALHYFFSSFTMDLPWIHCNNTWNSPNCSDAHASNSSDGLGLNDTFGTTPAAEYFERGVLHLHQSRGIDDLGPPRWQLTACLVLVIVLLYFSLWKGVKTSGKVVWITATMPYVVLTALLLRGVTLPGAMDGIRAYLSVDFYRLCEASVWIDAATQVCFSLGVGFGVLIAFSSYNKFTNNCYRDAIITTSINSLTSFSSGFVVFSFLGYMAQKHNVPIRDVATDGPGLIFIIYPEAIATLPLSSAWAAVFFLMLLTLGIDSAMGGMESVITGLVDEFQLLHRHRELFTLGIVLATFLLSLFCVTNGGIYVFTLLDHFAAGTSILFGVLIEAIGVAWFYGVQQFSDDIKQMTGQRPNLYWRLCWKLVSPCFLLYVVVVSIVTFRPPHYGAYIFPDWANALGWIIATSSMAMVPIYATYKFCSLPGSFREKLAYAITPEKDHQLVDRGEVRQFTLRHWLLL
In assay [3] the test system is Rattus norvegicus. Put plainly: Mean responses per minute at dose 0.1 mg/kg evaluated by substitution tests in trained rats(post injection interval 240 min). The class given is functional.
The subject of assay [4] is Rattus norvegicus. Put plainly: Number of animals(n) completing 20 responses on either lever out of the number of animals tested (N) at dose 0.05 mg/kg evaluated by dose-response tests in trained rats(post injection interval 120 min); n/N=7/7. The format is functional.
The subject of assay [5] is Rattus norvegicus. Briefly: Percent response at dose 0.1 mg/kg evaluated by substitution tests in trained rats(post injection interval 30 min). The format is functional.
The subject of assay [6] is Rattus norvegicus. Put plainly: Number of animals(n) completing 20 responses on either lever out of the number of animals tested (N) at dose 0.1 mg/kg evaluated by dose-response tests in trained rats(post injection interval 30 min); n/N=7/7. The class given is functional.
Assay [7] relates to Rattus norvegicus. Briefly: Number of animals(n) completing 20 responses on either lever out of the number of animals tested (N) at dose 0.05 mg/kg evaluated by dose-response tests in trained rats(post injection interval 240 min); n/N=7/7. The format is functional.
For assay [8], the system named is Rattus norvegicus. Put plainly: Percent response at dose 0.05 mg/kg evaluated by substitution tests in trained rats(post injection interval 30 min). The format is functional.
Assay [9] deals with Rattus norvegicus. Put plainly: Mean responses per minute at dose 0.05 mg/kg evaluated by substitution tests in trained rats(post injection interval 120 min). The format is functional.
Assay [10] concerns Rattus norvegicus. Briefly: Number of animals(n) completing 20 responses on either lever out of the number of animals tested (N) at dose 0.1 mg/kg evaluated by dose-response tests in trained rats(post injection interval 240 min); n/N=7/7. The format is functional.
Assay [11] deals with Rattus norvegicus. Briefly: Mean responses per minute at dose 0.8 mg/kg evaluated by substitution tests in trained rats(post injection interval 30 min). The format is functional.
For assay [12], the system named is Rattus norvegicus. Put plainly: Number of animals(n) completing 20 responses on either lever out of the number of animals tested (N) at dose 0.8 mg/kg evaluated by dose-response tests in trained rats(post injection interval 120 min); n/N=1/7. The class given is functional.
The subject of assay [13] is Rattus norvegicus. Put plainly: Number of animals(n) completing 20 responses on either lever out of the number of animals tested (N) at dose 0.8 mg/kg evaluated by dose-response tests in trained rats(post injection interval 30 min); n/N=7/7. The format is functional.
The species entered for assay [14] is Rattus norvegicus. Briefly: Result of substitution tests in trained rats and expressed as effective dose(post injection interval 30 min). The class given is functional. The following applies: 0.5 h.
Assay [15] relates to Rattus norvegicus. Put plainly: Mean responses per minute at dose 0.8 mg/kg evaluated by substitution tests in trained rats(post injection interval 120 min). The format is functional.
In assay [16] the test system is Rattus norvegicus. Briefly: Mean responses per minute at dose 0.05 mg/kg evaluated by substitution tests in trained rats(post injection interval 240 min). The format is functional.
The test system of assay [17] is Rattus norvegicus. Briefly: Percent response at dose 0.05 mg/kg evaluated by substitution tests in trained rats(post injection interval 120 min). The format is functional.
Assay [18] concerns Rattus norvegicus. Briefly: Mean responses per minute at dose 0.2 mg/kg evaluated by substitution tests in trained rats(post injection interval 30 min). The format is functional.
The test system of assay [19] is Rattus norvegicus. Briefly: Mean responses per minute at dose 0.2 mg/kg evaluated by substitution tests in trained rats(post injection interval 120 min). The class given is functional.
Assay [20] relates to Rattus norvegicus. Put plainly: Number of animals(n) completing 20 responses on either lever out of the number of animals tested (N) at dose 0.2 mg/kg evaluated by dose-response tests in trained rats(post injection interval 240 min); n/N=7/7. The format is functional.
Assay [21] deals with Rattus norvegicus. Put plainly: Percent response at dose 0.2 mg/kg evaluated by substitution tests in trained rats(post injection interval 240 min). The class given is functional.
The subject of assay [22] is Rattus norvegicus. Put plainly: Percent response at dose 0.05 mg/kg evaluated by substitution tests in trained rats(post injection interval 240 min). The class given is functional.
Assay [23] relates to Rattus norvegicus. Put plainly: Mean responses per minute at dose 0.05 mg/kg evaluated by substitution tests in trained rats(post injection interval 30 min). The format is functional.
For assay [24], the species on record is Rattus norvegicus. Put plainly: Result of substitution tests in trained rats and expressed as effective dose(post injection interval 240 min). The format is functional. Conditions: 4 h.
Assay [25] concerns Rattus norvegicus. Put plainly: Number of animals(n) completing 20 responses on either lever out of the number of animals tested (N) at dose 0.8 mg/kg evaluated by dose-response tests in trained rats(post injection interval 240 min); n/N=3/7. The class given is functional.
The test system of assay [26] is Rattus norvegicus. Briefly: Mean responses per minute at dose 0.8 mg/kg evaluated by substitution tests in trained rats(post injection interval 240 min). The class given is functional.
Assay [27] deals with Rattus norvegicus. Briefly: Percent response at dose 0.4 mg/kg evaluated by substitution tests in trained rats(post injection interval 240 min). The class given is functional.
The test system of assay [28] is Rattus norvegicus. Briefly: Mean responses per minute at dose 0.1 mg/kg evaluated by substitution tests in trained rats(post injection interval 30 min). The class given is functional.
Assay [29] concerns Rattus norvegicus. Briefly: Percent response at dose 0.2 mg/kg evaluated by substitution tests in trained rats(post injection interval 30 min). The class given is functional.
In assay [30] the test system is Rattus norvegicus. Briefly: Mean responses per minute at dose 0.2 mg/kg evaluated by substitution tests in trained rats(post injection interval 240 min). The class given is functional.
In assay [31] the test system is Rattus norvegicus. Briefly: Percent response at dose 0.8 mg/kg evaluated by substitution tests in trained rats(post injection interval 30 min). The class given is functional.
The test system of assay [32] is Rattus norvegicus. Briefly: Percent response at dose 0.1 mg/kg evaluated by substitution tests in trained rats(post injection interval 120 min). The class given is functional.
For assay [33], the system named is Rattus norvegicus. Briefly: Percent response at dose 0.1 mg/kg evaluated by substitution tests in trained rats(post injection interval 240 min). The class given is functional.
Assay [34] has as its system Rattus norvegicus. Put plainly: Number of animals(n) completing 20 responses on either lever out of the number of animals tested (N) at dose 0.4 mg/kg evaluated by dose-response tests in trained rats(post injection interval 240 min); n/N=4/5. The format is functional.
Assay [35] concerns Rattus norvegicus. Put plainly: Number of animals(n) completing 20 responses on either lever out of the number of animals tested (N) at dose 0.4 mg/kg evaluated by dose-response tests in trained rats(post injection interval 120 min); n/N=3/5. The format is functional.
Assay [36] has as its system Rattus norvegicus. Put plainly: Number of animals(n) completing 20 responses on either lever out of the number of animals tested (N) at dose 0.05 mg/kg evaluated by dose-response tests in trained rats(post injection interval 30 min); n/N=7/7. The format is functional.
The test system of assay [37] is Rattus norvegicus. Put plainly: Mean responses per minute at dose 0.4 mg/kg evaluated by substitution tests in trained rats(post injection interval 240 min). The format is functional.
For assay [38], the system named is Rattus norvegicus. Briefly: Number of animals(n) completing 20 responses on either lever out of the number of animals tested (N) at dose 0.2 mg/kg evaluated by dose-response tests in trained rats(post injection interval 120 min); n/N=7/7. The format is functional.
In assay [39] the test system is Rattus norvegicus. Put plainly: Percent response at dose 0.2 mg/kg evaluated by substitution tests in trained rats(post injection interval 120 min). The class given is functional.
Assay [40] has as its system Rattus norvegicus. Briefly: Percent response at dose 0.4 mg/kg evaluated by substitution tests in trained rats(post injection interval 30 min). The format is functional.
Assay [41] concerns Rattus norvegicus. Put plainly: Number of animals(n) completing 20 responses on either lever out of the number of animals tested (N) at dose 0.1 mg/kg evaluated by dose-response tests in trained rats(post injection interval 120 min); n/N=7/7. The format is functional.
In assay [42] the test system is Rattus norvegicus. Briefly: Percent response at dose 0.8 mg/kg evaluated by substitution tests in trained rats(post injection interval 240 min). The format is functional.
Assay [43] relates to Rattus norvegicus. Put plainly: Mean responses per minute at dose 0.4 mg/kg evaluated by substitution tests in trained rats(post injection interval 120 min). The format is functional.
In assay [44] the test system is Rattus norvegicus. Briefly: Percent response at dose 0.4 mg/kg evaluated by substitution tests in trained rats(post injection interval 120 min). The format is functional.
The species entered for assay [45] is Rattus norvegicus. Put plainly: Result of substitution tests in trained rats and expressed as effective dose(post injection interval 120 min). The class given is functional. Conditions: 2 h.
The subject of assay [46] is Rattus norvegicus. Put plainly: Number of animals(n) completing 20 responses on either lever out of the number of animals tested (N) at dose 0.2 mg/kg evaluated by dose-response tests in trained rats(post injection interval 30 min); n/N=7/7. The class given is functional.
Assay [47] deals with Rattus norvegicus. Briefly: Percent response at dose 0.8 mg/kg evaluated by substitution tests in trained rats(post injection interval 120 min). The class given is functional.
The subject of assay [48] is Rattus norvegicus. Briefly: Mean responses per minute at dose 0.1 mg/kg evaluated by substitution tests in trained rats(post injection interval 120 min). The class given is functional.
For assay [49], the system named is Rattus norvegicus. Briefly: Number of animals(n) completing 20 responses on either lever out of the number of animals tested (N) at dose 0.4 mg/kg evaluated by dose-response tests in trained rats(post injection interval 30 min); n/N=7/7. The format is functional.
Assay [50] concerns Rattus norvegicus. Put plainly: Mean responses per minute at dose 0.4 mg/kg evaluated by substitution tests in trained rats(post injection interval 30 min). The class given is functional.
Assay [51] is filed under the species Rattus norvegicus. Put plainly: Compound was evaluated for its ability to displace [3H]-mazindol binding from rat striatal membranes.

Regarding `C=C[C@@H]1C2CC[C@H](C[C@@H]1OC(=O)c1ccccc1)N2C`, the half-inhibitory concentration (IC50) (in general, the midpoint of a concentration-inhibition curve) in the assay filed under Rattus norvegicus [1] amounted to 1120 nM; in assay [2] it was 1730 nM.
In the same order, the values of `CN1C2CC[C@@H]1C[C@H](OC(=O)c1ccccc1)[C@@H]2/C=C/Cl` are 368 nM and 222 nM.
Turning to `C=C[C@@H]1C2CCC(C[C@@H]1c1ccc(Cl)cc1)N2C` (stereo partly specified), the Rate response came out at 23.5 min⁻¹ in the assay on Rattus norvegicus [3]; 18.4 min⁻¹ with Rattus norvegicus [9]; 33.5 min⁻¹ with Rattus norvegicus [11]; 7.7 min⁻¹ in the assay with Rattus norvegicus [15]; 28.3 min⁻¹ with Rattus norvegicus [16]; 26.2 min⁻¹ in the assay on Rattus norvegicus [18]. Moreover, the Rate response was 46.8 min⁻¹ in the assay on Rattus norvegicus [19]; 29.6 min⁻¹ with Rattus norvegicus [23]; 39.1 min⁻¹ in the assay on Rattus norvegicus [26]; 37.1 min⁻¹ in the assay on Rattus norvegicus [28]; 47.9 min⁻¹ in the assay with Rattus norvegicus [30]; 23.6 min⁻¹ with Rattus norvegicus [37]. Further, the Rate response in the assay on Rattus norvegicus [43] amounted to 24.9 min⁻¹; in the assay with Rattus norvegicus [48], 25.7 min⁻¹; in the assay on Rattus norvegicus [50], 52.8 min⁻¹. Also, the “No. resp animals / Total” value in the assay on Rattus norvegicus [4] is listed as 7 / 7; in the assay on Rattus norvegicus [6], 4 / 5; in the assay with Rattus norvegicus [7], 7 / 7; with Rattus norvegicus [10], 7 / 7; with Rattus norvegicus [12], 5 / 5; with Rattus norvegicus [13], 7 / 7. Besides, the “No. resp animals / Total” value was 7 / 7 with Rattus norvegicus [20]; 3 / 7 with Rattus norvegicus [25]; 1 / 7 in the assay with Rattus norvegicus [34]; 7 / 7 in the assay with Rattus norvegicus [35]; 7 / 7 with Rattus norvegicus [36]; 7 / 7 in the assay with Rattus norvegicus [38]. For the same compound, the “No. resp animals / Total” value in the assay with Rattus norvegicus [41], in the assay on Rattus norvegicus [46] and in the assay on Rattus norvegicus [49] was 7 / 7 throughout. The Drug response in the assay on Rattus norvegicus [5] is 40%; in the assay on Rattus norvegicus [8] it was 19%; with Rattus norvegicus [17], 22%; in the assay on Rattus norvegicus [21], 98%; in the assay with Rattus norvegicus [22], 14%; in the assay on Rattus norvegicus [27], 91%. In addition, the Drug response amounted to 83% in the assay on Rattus norvegicus [29]; 93% in the assay with Rattus norvegicus [31]; 75% in the assay on Rattus norvegicus [32]; 61% with Rattus norvegicus [33]; 100% in the assay with Rattus norvegicus [39]; 99% with Rattus norvegicus [40]. The Drug response with Rattus norvegicus [42] is recorded as 100%; in the assay on Rattus norvegicus [44] it was 72%; in the assay on Rattus norvegicus [47], 95%. The median effective dose (ED50) (commonly the dose at which the effect has come halfway, by size or by number of responders) in the assay listed under Rattus norvegicus [14] came out at 0.11 mg/kg; in the assay filed under Rattus norvegicus [24], 0.09 mg/kg; in the assay listed under Rattus norvegicus [45] it was 0.08 mg/kg. The same compound gave a half-inhibitory concentration (IC50) in the assay listed under Rattus norvegicus [1] of 2.8 nM.
As for `CN1C2CCC1[C@@H](/C=C/Cl)[C@@H](c1ccc(Cl)cc1)C2` (stereo partly specified), the values for the concentration for half-maximal inhibition (IC50) in the assay listed under Rattus norvegicus [51] and in the assay listed under Rattus norvegicus [1] were 0.7 nM and 1.3 nM, respectively.
As to `COC(=O)C1C2CC[C@H](C[C@@H]1c1ccc(Cl)cc1)N2C` (stereo partly specified), in the assay listed under Rattus norvegicus [1], half-maximal inhibition (IC50) was put at 3.2 nM.
